Assay results taken from article PMC12808100, “The non-catalytic DNA polymerase ε subunit is an NPF motif recognition protein” (Nature Communications, 2025).

What was measured:
[1] = system: POLE; experiment: nHU-MS peptide bait, prey POLE; conditions: FigureS2 Volcano
[2] = system: POLE; experiment: Titration nHU, Western blot, endogenous POLE in Jurkat extract; format: binding, human; conditions: titration nHU, Jurkat extract
From the text: To identify the partners of NPF motifs, we used the native holdup (nHU) assay that was recently developed by our team (Fig. 1B). The holdup approach has been extensively used to determine equilibrium dissociation constants of transient interactions mediated by PDZ and SH3 domains, 14-3-3, and human papilloma virus E6 proteins, and even nucleic acid-protein interactions[7],[30]–[35]. In the nHU experiments, a purified bait molecule, or a control compound, is immobilized on a resin at high concentration (typically 10 μM, or higher) and these resin stocks are subsequently mixed with dilute cell extracts. After a relatively long incubation, i.e., 2 h at 4 °C, the liquid phase is separated by centrifugation. This liquid phase contains the unbound prey molecules at near binding equilibrium that can be quantified using selective and quantitative analytical approaches, such as mass spectrometry. Therefore, proteins that interact with the bait molecule will appear to be depleted in the solvent phase and by measuring its relative concentration compared to the control nHU experiment, the degree of binding (θ) can be determined that can be converted to apparent steady-state dissociation constants, according to:1 θ=1−Ifree/Itot=Cbait/Cbait+Kapp where Itot and Ifree are the measured total and bait-depleted equilibrium mass spectrometry total ion intensities of prey proteins, Cbait is the bait molecule concentration and Kapp is the apparent dissociation constant.
Jurkat E6.1 cells (ECACC #88042803, RRID: CVCL_0367) were grown in RPMI (Gibco) medium completed with 10% FBS (Gibco BRL) and 40 μg/ml gentamicin (Gibco/Life Technology). To prepare total cell extracts, Jurkat cells were seeded onto T-175 flasks and grew until 3 × 10^6 cells/ml confluency. Cells were collected by 1000 g x 5 min centrifugation, washed with PBS and then lysed in ice-cold lysis buffer (Hepes-KOH pH 7.5 50 mM, NaCl 150 mM, Triton X-100 1%, cOmplete EDTA-free protease inhibitor cocktail 5x, TCEP 5 mM, glycerol 10%).
Cell suspensions were sonicated 4×20 sec with 1 sec long pulse on ice, then incubated rotating at 4 °C for 30 min. The lysates were centrifuged at 12,000 rpm 4 °C for 20 min and supernatant was kept. Total protein concentration was measured by standard Bradford method (Bio-Rad Protein Assay Dye Reagent #5000006) using a BSA calibration curve (MP Biomedicals #160069, diluted in lysis buffer) on a Bio-Rad SmartSpec 3000 spectrophotometer instrument.
Titration holdup experiments were carried out as described above using 25 μl saturated resins prepared. Briefly, we mixed control, or bait-saturated resins at various proportions by keeping the total resin amount and resin-analyte ratio constant during the experiment (for 25 μl we used 100 μl cell extract as analyte). In titration experiments with protein baits, bait concentration was determined as described above for the saturated resin stocks. Experiments were carried out at 4 °C for 2 h and recovered supernatants were subjected to western blot or dot blot analysis.
For Western blot, samples were mixed with 4x Laemmli Sample Buffer in 3:1 ratio. Equal amounts of samples were loaded on 6-10% acrylamide-gels (generally 16 μg). Transfer was done into PVDF membranes using a Trans-Blot Turbo Transfer System and Trans-Blot Turbo RTA Transfer Kit (BioRad, #1704275). For Dot blot, nHU samples were directly loaded on Nitrocellulose membranes using 48 Sample vacuum manifold (Cleaver Scientific) following the manufacturer’s recommendations.
After 1 h of blocking in 5% milk, membranes were incubated overnight at 4 °C with primary antibodies in 5% milk-TBS-Tween.

[3] = target: His6-avi-MBP-tagged POLE2; experiment: Single-point nHU-MS with recombinant His6-avi-MBP-POLE2 bait, Jurkat extract; format: binding, human; conditions: significant apparent affinity of endogenous prey protein for POLE2 bait; single-point nHU-MS; Figure S11
From the text: So far, our study only focused on a few hand-picked NPF motifs and studied them as short synthetic peptides. However, many other proteins may be present in the proteome that could bind to POLE2 and their putative NPF motifs are embedded in their natural structures that can greatly affect their binding properties. To investigate interactions between POLE2 and intact, full length proteins proteome-wide, we used nHU-MS experiments with recombinant His6-avi-MBP-tagged POLE2 as bait and purified His6-avi-MBP as a control. Even though we are aware that this recombinant POLE2 may bind to NPF motifs with a somewhat altered affinity, we assumed that this would affect all NPF motif-mediated interactions equally, allowing an unbiased affinity ranking of all identified partners. Single point nHU measurements were performed at 26 μM POLE2 concentration and the recovered supernatant was measured by label free proteomic MS measurements (Fig. 3A, Supplementary Figs. 8A, 9, Supplementary Data 1).
Single-point nHU experiments with protein baits were carried out nearly identically with two key modifications. First, the resin saturation step was carried out by mixing 50 μl streptavidin resin with 0.5−1 ml 50 μM biotinylated protein solution and the mixture was incubated for 1.5 h at 4 °C with constant agitation. Second, instead of using estimated bait concentrations, we measured it experimentally. An extra aliquot of resin stock was prepared alongside the nHU samples that were identically processed that were used to eluate the immobilized proteins under harsh conditions, in order to experimentally quantify the Cbait by using densitometry of Coomassie stained SDS-PAGE that included a protein calibration series. For this, 50 μl bait-saturated resin aliquots were mixed with 200 μl 4x Laemmli Sample Buffer (120 mM Tris-HCl pH 7, 8% SDS, 100 mM DTT, 32% glycerol, 0.004% bromphenol blue, 1% β-mercaptoethanol), instead of cell extract. After 15 min incubation at 95 °C, these samples were analyzed by SDS-PAGE using protein calibration standard, made from recombinant MBP. Densitometry was carried out after Coomassie staining on raw Tif images by using Fiji ImageJ 1.53c and experimental bait concentration were determined by adjusting for molecular weight differences between MBP and MBP-POLE2 constructs.
Samples were digested overnight at 37 °C.

[4] = target: T1, EHD1 (Homo sapiens, UniProt Q9H4M9); experiment: nHU-MS peptide bait, prey EHD1; conditions: FigureS2 Volcano; prey EHD1
T1 sequence (Q9H4M9 1-534): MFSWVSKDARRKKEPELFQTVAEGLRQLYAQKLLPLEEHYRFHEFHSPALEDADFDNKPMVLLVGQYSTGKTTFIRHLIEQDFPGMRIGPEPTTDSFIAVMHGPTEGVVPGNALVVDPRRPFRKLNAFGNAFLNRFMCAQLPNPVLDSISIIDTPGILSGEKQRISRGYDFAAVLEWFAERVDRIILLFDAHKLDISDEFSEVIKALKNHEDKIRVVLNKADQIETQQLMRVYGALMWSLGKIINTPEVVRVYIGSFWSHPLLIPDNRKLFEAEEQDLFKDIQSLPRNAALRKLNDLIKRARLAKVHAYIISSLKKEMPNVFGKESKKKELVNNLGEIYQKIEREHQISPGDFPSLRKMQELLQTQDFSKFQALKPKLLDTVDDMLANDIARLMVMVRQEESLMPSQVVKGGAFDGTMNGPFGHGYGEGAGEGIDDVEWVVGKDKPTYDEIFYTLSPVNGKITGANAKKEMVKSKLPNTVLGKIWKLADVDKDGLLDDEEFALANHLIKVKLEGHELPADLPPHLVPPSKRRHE

Substance: TSETSK [SYNJ1]
- log2FC [1]: -0.4452
- weaker POLE binding than the DONSON motif [2]: ~ 6 fold
- pKapp_sign [3]: 4.4418
- -log10P [4]: 14.1958
- log2FC [4]: -0.4973
